In publication PMC3077032 (Clinical cancer research : an official journal of the …, 2011):
Like-named read-outs stand apart in the source and are kept apart here.

Experiments:
[1] = in vivo
[2] = clinical; settings: human, plasma (sorafenib); sample for sirolimus not named, oral
[3] = day 28 combination vs day 14 alone
[4] = for AUC, median relative difference (range) after initiation of combination therapy / Cmax, median relative difference (range) after initiation of combination therapy: combination with the interacting drug vs drug alone, n=6; for Ka, population estimate: one-compartment NONMEM model, n = 6 per drug
[5] = cited from earlier work
[6] = system: CYP3A4; settings: cited from earlier work
[7] = daily oral dosing, phase I trial in cancer patients

CCNCCNC(=O)c1c(C)[nH]c(/C=C2\C(=O)Nc3ccc(F)cc32)c1C [SU12662]
AUC, median relative difference (range) after initiation of combination therapy [1]: 61.6 (−79.7, 1031.2) %

CO[C@H]1C[C@@H]2CC[C@@H](C)[C@@](O)(O2)C(=O)C(=O)N2CCCC[C@H]2C(=O)O[C@H]([C@H](C)C[C@@H]2CC[C@@H](O)[C@H](OC)C2)CC(=O)[C@H](C)/C=C(\C)[C@@H](O)[C@@H](OC)C(=O)[C@H](C)C[C@H](C)/C=C/C=C/C=C/1C [sirolimus, Sirolimus]
Vd/F [2]: 138 L
AUC, median relative difference (range) after initiation of combination therapy [3]: −47.7 (−75.4, 1394.8) %
Cmax, median relative difference (range) after initiation of combination therapy [3]: −29.8%
Cmax, median relative difference (range) after initiation of combination therapy ([3]; listed as Sirolimus): −29.8 (−77.4, 28.8) %
AUC, median relative difference (range) after initiation of combination therapy [4]: 43.7 (10.5, 84.7) %
Cmax, median relative difference (range) after initiation of combination therapy [4]: 3.9%
Cmax, median relative difference (range) after initiation of combination therapy ([4]; listed as Sirolimus): 3.9 (1.3, 11.0) %
Ka, population estimate [4]: 2.01 h⁻¹
Dose well tolerated [5, 7]: 3 mg
Maximum tolerated dose [5, 7]: 6 mg
Dose administered without dose limiting toxicity ([5]; weekly dosing, ongoing study at the University of Chicago): 90 mg

CNC(=O)c1cc(Oc2ccc(NC(=O)Nc3ccc(Cl)c(C(F)(F)F)c3)cc2)ccn1 [sorafenib, Sorafenib]
Vd/F [2]: 807 L
Effect of inhibitors of CYP3A4 on pharmacokinetics [6]: only modestly affected
AUC, median relative difference (range) after initiation of combination therapy [4]: 6.1 (−17.3, 22.0) %
Cmax, median relative difference (range) after initiation of combination therapy [4]: −40.7%
Cmax, median relative difference (range) after initiation of combination therapy ([4]; listed as Sorafenib): −40.7 (−87.0, 351.2) %
Ka, population estimate [4]: 1.07 h⁻¹

CCN(CC)CCNC(=O)c1c(C)[nH]c(/C=C2\C(=O)Nc3ccc(F)cc32)c1C [sunitinib, Sunitinib]
Effect of inhibitors of CYP3A4 on pharmacokinetics [6]: only modestly affected
AUC, median relative difference (range) after initiation of combination therapy [3]: 54.3 (−34.3, 232.8) %
Cmax, median relative difference (range) after initiation of combination therapy [3]: 19.6%
Cmax, median relative difference (range) after initiation of combination therapy ([3]; listed as Sunitinib): 19.6 (−23.5, 45.4) %
